Ki data for 22 compounds are collected here from patent US7902361B2, “Pyrimidin-4-yl-3, 4-thione compounds and their use in therapy” (Cyclacel Limited, priority 2003, dated 2011).

Type in all cases: biochemical
One experiment deals with CDK4/cyclin D1 (Homo sapiens, UniProt P11802). Description: Kinase assay CDK4/cyclin D1. The settings on record: Ki calculated (Cheng-Prusoff) from experimentally determined IC50 and Km,ATP; read-out: Kinase Inhibition Ki CDK4 - cyclin D1. The method, then:
(§1) The compounds from the examples above were investigated for their ability to inhibit the enzymatic activity of various protein kinases. This was achieved by measurement of incorporation of radioactive phosphate from ATP into appropriate polypeptide substrates. Recombinant protein kinases and kinase complexes were produced or obtained commercially. Assays were performed using 96-well plates and appropriate assay buffers (typically 25 mM β-glycerophosphate, 20 mM MOPS, 5 mM EGTA, 1 mM DTT, 1 mM […], pH 7.4), into which were added 2-4 μg of active enzyme with appropriate substrates. The reactions were initiated by addition of Mg/ATP mix (15 mM MgCl2+100 μM ATP with 30-50 kBq per well of [γ-^32P]-ATP) and mixtures incubated as required at 30° C. Reactions were stopped on ice, followed by filtration through p81 filterplates or GF/C filterplates (Whatman Polyfiltronics, Kent, UK). After washing 3 times with 75 mM aq orthophosphoric acid, plates were dried, scintillant added and incorporated radioactivity measured in a scintillation counter (TopCount, Packard Instruments, Pangbourne, Berks, UK). Compounds for kinase assay were made up as 10 mM stocks in DMSO and diluted into 10% DMSO in assay buffer.

For another experiment, the target named is CDK2/cyclin E (Homo sapiens, UniProt P24941). Description: Kinase assay CDK2/cyclin E. To be noted: Ki calculated (Cheng-Prusoff) from experimentally determined IC50 and Km,ATP; read-out: Kinase Inhibition Ki CDK2 - cyclin E. The method, then: as §1, with “The reactions were initiated by addition of Mg/ATP mix (15 mM MgCl2+100 μM ATP with 30-50 kBq per well of [γ-^32P]-ATP) and mixtures incubated as required at 30° C.” left out

For a further experiment, the target named is CDK7/cyclin H (Homo sapiens, UniProt P50613). Description: Kinase assay CDK7/cyclin H. The settings on record: Ki calculated (Cheng-Prusoff) from experimentally determined IC50 and Km,ATP; read-out: Kinase Inhibition Ki CDK7 - cyclin H. As to the method: as §1
Chain of CDK7/cyclin H (P50613 whole entry, species assumed): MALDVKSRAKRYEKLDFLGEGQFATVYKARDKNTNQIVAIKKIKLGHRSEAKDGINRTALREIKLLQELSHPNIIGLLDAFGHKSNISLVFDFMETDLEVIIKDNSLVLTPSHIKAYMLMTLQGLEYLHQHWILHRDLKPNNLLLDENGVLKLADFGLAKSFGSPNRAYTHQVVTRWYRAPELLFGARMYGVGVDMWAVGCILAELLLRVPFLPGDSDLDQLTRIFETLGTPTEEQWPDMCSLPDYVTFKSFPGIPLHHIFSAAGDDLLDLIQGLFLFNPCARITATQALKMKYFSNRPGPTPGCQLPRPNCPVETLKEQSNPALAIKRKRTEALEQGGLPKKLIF
Chain of CDK7/cyclin H (P51946 whole entry partner, species assumed): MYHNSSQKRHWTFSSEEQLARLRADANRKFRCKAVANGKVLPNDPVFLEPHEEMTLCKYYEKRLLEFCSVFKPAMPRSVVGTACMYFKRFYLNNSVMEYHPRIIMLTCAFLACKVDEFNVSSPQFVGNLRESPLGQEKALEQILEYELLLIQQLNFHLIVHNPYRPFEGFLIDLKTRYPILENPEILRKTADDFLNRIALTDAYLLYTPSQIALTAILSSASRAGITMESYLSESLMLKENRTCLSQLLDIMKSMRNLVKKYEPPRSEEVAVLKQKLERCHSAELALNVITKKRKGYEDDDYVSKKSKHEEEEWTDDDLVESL
The next experiment deals with CDK9/cyclin T1 (Homo sapiens, UniProt P50750). Kind of experiment: Kinase assay CDK9/cyclin T1. To be noted: Ki calculated (Cheng-Prusoff) from experimentally determined IC50 and Km,ATP; read-out: Kinase Inhibition Ki CDK9 - cyclin T1. The method, then: as §1
Chain of CDK9/cyclin T1 (P50750 whole entry, species assumed): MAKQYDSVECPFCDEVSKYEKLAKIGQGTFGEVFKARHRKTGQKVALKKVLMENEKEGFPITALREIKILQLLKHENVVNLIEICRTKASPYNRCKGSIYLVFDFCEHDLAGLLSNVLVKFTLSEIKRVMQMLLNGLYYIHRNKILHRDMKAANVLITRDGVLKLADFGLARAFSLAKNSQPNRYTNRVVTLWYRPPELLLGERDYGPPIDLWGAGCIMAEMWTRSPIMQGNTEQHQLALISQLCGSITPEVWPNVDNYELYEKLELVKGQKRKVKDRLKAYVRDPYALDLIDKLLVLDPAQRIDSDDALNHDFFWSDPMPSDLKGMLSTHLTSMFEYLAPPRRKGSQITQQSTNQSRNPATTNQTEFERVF
Chain of CDK9/cyclin T1 (O60563 whole entry partner, species assumed): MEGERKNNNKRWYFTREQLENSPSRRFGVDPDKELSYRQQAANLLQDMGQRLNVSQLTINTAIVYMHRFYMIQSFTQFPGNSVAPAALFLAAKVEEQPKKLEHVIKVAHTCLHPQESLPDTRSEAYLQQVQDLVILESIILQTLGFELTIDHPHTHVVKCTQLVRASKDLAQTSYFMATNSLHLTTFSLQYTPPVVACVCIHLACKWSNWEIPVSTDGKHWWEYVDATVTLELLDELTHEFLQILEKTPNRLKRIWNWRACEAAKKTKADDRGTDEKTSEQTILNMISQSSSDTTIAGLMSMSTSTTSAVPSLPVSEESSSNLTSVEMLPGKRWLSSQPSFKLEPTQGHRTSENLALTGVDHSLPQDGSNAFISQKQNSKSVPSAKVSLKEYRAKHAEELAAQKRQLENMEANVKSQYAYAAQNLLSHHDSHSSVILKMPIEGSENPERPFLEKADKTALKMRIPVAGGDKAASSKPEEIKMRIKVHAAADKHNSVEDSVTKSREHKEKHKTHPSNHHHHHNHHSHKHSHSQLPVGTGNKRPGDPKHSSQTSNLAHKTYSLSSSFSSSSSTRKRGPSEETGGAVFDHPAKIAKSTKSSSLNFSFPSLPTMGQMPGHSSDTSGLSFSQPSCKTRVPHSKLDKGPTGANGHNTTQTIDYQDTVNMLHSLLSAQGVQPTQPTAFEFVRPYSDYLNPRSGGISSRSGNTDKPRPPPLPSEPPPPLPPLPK
For the next experiment, the target named is CDK2/cyclin A (Homo sapiens, UniProt P24941). Kind of experiment: Kinase assay CDK2/cyclin A. The settings on record: Ki calculated (Cheng-Prusoff) from experimentally determined IC50 and Km,ATP; read-out: Kinase Inhibition Ki CDK2 - cyclin A. As to the method:
as §1, with “The reactions were initiated by addition of Mg/ATP mix (15 mM MgCl2+100 μM ATP with 30-50 kBq per well of [γ-^32P]-ATP) and mixtures incubated as required at 30° C.” left out

The next experiment addresses CDK1/cyclin B (Homo sapiens, UniProt P06493). Description: Kinase assay CDK1/cyclin B (radioactive phosphate incorporation). To be noted: Ki calculated (Cheng-Prusoff) from experimentally determined IC50 and Km,ATP; read-out: Kinase Inhibition Ki CDK1 - cyclin B. As to the method: as §1, with “The reactions were initiated by addition of Mg/ATP mix (15 mM MgCl2+100 μM ATP with 30-50 kBq per well of [γ-^32P]-ATP) and mixtures incubated as required at 30° C.” left out

Chain of CDK1/cyclin B (P06493 whole entry, species assumed): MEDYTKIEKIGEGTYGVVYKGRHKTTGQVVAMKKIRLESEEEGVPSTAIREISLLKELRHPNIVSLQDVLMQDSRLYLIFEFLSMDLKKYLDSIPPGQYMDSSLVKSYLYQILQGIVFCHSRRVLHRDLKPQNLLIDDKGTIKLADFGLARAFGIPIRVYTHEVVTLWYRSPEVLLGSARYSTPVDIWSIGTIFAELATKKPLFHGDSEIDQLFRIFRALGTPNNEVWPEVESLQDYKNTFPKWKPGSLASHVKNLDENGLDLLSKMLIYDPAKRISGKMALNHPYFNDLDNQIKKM
Chain of CDK1/cyclin B (P14635 whole entry partner, species assumed): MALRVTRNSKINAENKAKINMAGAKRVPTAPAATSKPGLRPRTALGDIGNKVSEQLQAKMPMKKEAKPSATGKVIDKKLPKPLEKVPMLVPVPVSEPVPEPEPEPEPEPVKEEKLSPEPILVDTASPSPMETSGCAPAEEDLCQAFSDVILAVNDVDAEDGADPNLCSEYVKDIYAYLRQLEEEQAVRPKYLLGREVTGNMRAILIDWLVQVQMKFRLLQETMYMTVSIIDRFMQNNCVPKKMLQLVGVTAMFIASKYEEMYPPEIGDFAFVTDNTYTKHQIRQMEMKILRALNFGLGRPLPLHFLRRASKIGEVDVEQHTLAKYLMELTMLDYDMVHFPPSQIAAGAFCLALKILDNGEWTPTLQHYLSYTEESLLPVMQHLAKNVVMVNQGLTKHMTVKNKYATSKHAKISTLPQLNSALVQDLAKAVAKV
Chain of CDK4/cyclin D1 (P11802 whole entry, species assumed): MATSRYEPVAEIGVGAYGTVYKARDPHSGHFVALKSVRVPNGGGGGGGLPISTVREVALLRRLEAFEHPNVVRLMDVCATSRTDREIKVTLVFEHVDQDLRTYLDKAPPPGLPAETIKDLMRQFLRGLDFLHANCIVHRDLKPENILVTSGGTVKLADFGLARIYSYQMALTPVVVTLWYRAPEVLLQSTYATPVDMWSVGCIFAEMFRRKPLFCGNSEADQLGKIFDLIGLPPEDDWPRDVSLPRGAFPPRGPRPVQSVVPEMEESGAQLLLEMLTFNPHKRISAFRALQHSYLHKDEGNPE
Chain of CDK4/cyclin D1 (P24385 whole entry partner, species assumed): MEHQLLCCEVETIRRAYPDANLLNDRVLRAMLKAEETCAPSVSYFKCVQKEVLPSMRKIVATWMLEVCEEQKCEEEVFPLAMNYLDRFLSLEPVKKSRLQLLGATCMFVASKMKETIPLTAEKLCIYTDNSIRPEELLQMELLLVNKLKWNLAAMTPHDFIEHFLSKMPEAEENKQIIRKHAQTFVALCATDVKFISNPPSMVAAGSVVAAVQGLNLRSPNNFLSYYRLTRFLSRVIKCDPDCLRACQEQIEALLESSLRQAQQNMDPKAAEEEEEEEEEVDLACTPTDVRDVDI

In the case of `CCn1c(C)c(-c2ccnc(Nc3ccc(N(C)C)c([N+](=O)[O-])c3)n2)sc1=O` [Compound 29, 5-[2-(4-Dimethylamino-3-nitro-phenylamino)-pyrimidin-4-yl]-3-ethyl-4-methyl-3H-thiazol-2-one], the Ki (usually the equilibrium dissociation constant of an inhibitor or competing ligand from its target) was 170 nM at CDK4/cyclin D1, 33 nM at CDK2/cyclin E, 43 nM on CDK7/cyclin H and 7 nM at CDK9/cyclin T1.
As for `COc1ccc(Nc2nccc(-c3sc(=O)n(C)c3C)n2)cc1` [Compound 6, 5-[2-(4-Methoxy-phenylamino)-pyrimidin-4-yl]-3,4-dimethyl-3H-thiazol-2-one], the Ki at CDK4/cyclin D1 is 570 nM; at CDK2/cyclin A, 190 nM; at CDK2/cyclin E, 380 nM; on CDK1/cyclin B, 260 nM; on CDK7/cyclin H it was 920 nM.
`Cc1c(-c2ccnc(Nc3ccc(Cl)c(CO)c3)n2)sc(=O)n1C` [Compound 18, 5-[2-(4-Chloro-3-hydroxymethyl-phenylamino)-pyrimidin-4-yl]-3,4-dimethyl-3H-thiazol-2-one]: the Ki at CDK4/cyclin D1 is 170 nM; at CDK2/cyclin A, 59 nM; at CDK2/cyclin E it was 28 nM; on CDK1/cyclin B, 22 nM; on CDK7/cyclin H, 28 nM; at CDK9/cyclin T1, 1.2 nM.
For the compound `Cc1ccc([N+](=O)[O-])cc1Nc1nccc(-c2sc(=O)n(C)c2C)n1` [Compound 20, 3,4-Dimethyl-5-[2-(2-methyl-5-nitro-phenylamino)-pyrimidin-4-yl]-3H-thiazol-2-one], the Ki at CDK2/cyclin E is 6500 nM; at CDK7/cyclin H it was 910 nM; at CDK9/cyclin T1, 85 nM.
`CC(=O)Nc1nccc(-c2sc(=O)n(C)c2C)n1` [Compound 85, N-[4-(3,4-Dimethyl-2-oxo-2,3-dihydro-thiazol-5-yl)-pyrimidin-2-yl]-acetamide]: the inhibitory constant (Ki) on CDK9/cyclin T1 was 290 nM.
On the same count and under the same terms, under `Cc1c(-c2ccnc(N)n2)sc(=O)n1C` [Compound 84, 5-(2-Amino-pyrimidin-4-yl)-3,4-dimethyl-3H-thiazol-2-one] stands 130 nM.
Consider `Cc1c(-c2ccnc(Nc3cccc(O)c3)n2)sc(=O)n1C` [Compound 7, 5-[2-(3-Hydroxy-phenylamino)-pyrimidin-4-yl]-3,4-dimethyl-3H-thiazol-2-one], for which the Ki on CDK4/cyclin D1 is 540 nM; on CDK2/cyclin A, 25 nM; at CDK2/cyclin E it was 43 nM; at CDK1/cyclin B it was 130 nM; at CDK7/cyclin H it was 620 nM.
On to `Cc1c(-c2ccnc(Nc3ccc(O)cc3)n2)sc(=O)n1C` [Compound 3, 5-[2-(4-Hydroxy-phenylamino)-pyrimidin-4-yl]-3,4-dimethyl-3H-thiazol-2-one], for which, at CDK9/cyclin T1, the Ki is 0.7 nM.
On to `Cc1c(-c2ccnc(Nc3ccc(Cl)nc3)n2)sc(=O)n1C` [Compound 32, 5-[2-(6-Chloro-pyridin-3-ylamino)-pyrimidin-4-yl]-3,4-dimethyl-3H-thiazol-2-one], for which the Ki at CDK2/cyclin E was 68 nM; at CDK1/cyclin B, 500 nM; on CDK9/cyclin T1, 6.5 nM.
With `Cc1cc(Nc2nccc(-c3sc(=O)n(C)c3C)n2)ccc1F` [Compound 12, 5-[2-(4-Fluoro-3-methyl-phenylamino)-pyrimidin-4-yl]-3,4-dimethyl-3H-thiazol-2-one], the Ki on CDK2/cyclin E was 66 nM; at CDK1/cyclin B, 380 nM; on CDK9/cyclin T1, 24 nM.
For `CCn1c(C)c(-c2ccnc(Nc3cccc(OC)c3)n2)sc1=O` [Compound 50, 3-Ethyl-5-[2-(3-methoxy-phenylamino)-pyrimidin-4-yl]-4-methyl-3H-thiazol-2-one], the Ki at CDK7/cyclin H is 140 nM; on CDK9/cyclin T1 it was 80 nM.
With `Cc1c(-c2ccnc(NCc3cccnc3)n2)sc(=O)n1C` [Compound 83, 3,4-Dimethyl-5-{2-[(pyridin-3-ylmethyl)-amino]-pyrimidin-4-yl}-3H-thiazol-2-one], the Ki on CDK4/cyclin D1 is 1300 nM; on CDK2/cyclin E, 1600 nM; on CDK9/cyclin T1, 320 nM.
For `Cc1c(-c2ccnc(Nc3ccc(Cl)cc3)n2)sc(=O)n1CCC(C)C` [Compound 31, 5-[2-(4-Chloro-phenylamino)-pyrimidin-4-yl]-4-methyl-3-(3-methyl-butyl)-3H-thiazol-2-one], the Ki at CDK7/cyclin H is 430 nM.
Take `CCn1c(C)c(-c2ccnc(Nc3ccc(Cl)c(C(=O)O)c3)n2)sc1=O` [Compound 24, 2-Chloro-5-[4-(3-ethyl-4-methyl-2-oxo-2,3-dihydro-thiazol-5-yl)-pyrimidin-2-ylamino]-benzoic acid]: the Ki was 24000 nM on CDK4/cyclin D1; 1100 nM at CDK2/cyclin A; 1900 nM at CDK2/cyclin E; 6300 nM on CDK1/cyclin B; 370 nM on CDK9/cyclin T1.
In the case of `CCn1c(C)c(-c2ccnc(Nc3ccc(Cl)c(C(=O)OC)c3)n2)sc1=O` [Compound 25, 2-Chloro-5-[4-(3-ethyl-4-methyl-2-oxo-2,3-dihydro-thiazol-5-yl)-pyrimidin-2-ylamino]-benzoic acid methyl ester], the inhibition constant (Ki) at CDK2/cyclin A is 23000 nM; at CDK2/cyclin E it was 2700 nM; on CDK9/cyclin T1 it was 4400 nM.
Consider `Cc1c(-c2ccnc(Nc3ccc(N4CCOCC4)cc3)n2)sc(=O)n1C` [Compound 9, 3,4-Dimethyl-5-[2-(4-morpholin-4-yl-phenylamino)-pyrimidin-4-yl]-3H-thiazol-2-one], for which the Ki on CDK4/cyclin D1 was 670 nM; at CDK2/cyclin A, 170 nM; at CDK2/cyclin E, 590 nM; at CDK1/cyclin B it was 5200 nM; at CDK7/cyclin H, 1300 nM.
In the same order, the values of `Cc1c(-c2ccnc(Nc3ccc(F)c([N+](=O)[O-])c3)n2)sc(=O)n1C` [Compound 10, 5-[2-(4-Fluoro-3-nitro-phenylamino)-pyrimidin-4-yl]-3,4-dimethyl-3H-thiazol-2-one] are 990 nM, 21 nM, 130 nM, 280 nM and 520 nM.
For `Cc1ccc(Nc2nccc(-c3sc(=O)n(C)c3C)n2)cc1I` [Compound 14, 5-[2-(3-Iodo-4-methyl-phenylamino)-pyrimidin-4-yl]-3,4-dimethyl-3H-thiazol-2-one], the Ki was 2100 nM on CDK4/cyclin D1; 840 nM on CDK2/cyclin A; 350 nM at CDK2/cyclin E; 700 nM on CDK1/cyclin B; 35 nM on CDK9/cyclin T1.
In the case of `Cc1c(-c2ccnc(Nc3cc([N+](=O)[O-])ccc3N(C)C)n2)sc(=O)n1C` [Compound 37, 5-[2-(2-Dimethylamino-5-nitro-phenylamino)-pyrimidin-4-yl]-3,4-dimethyl-3H-thiazol-2-one], the Ki is 8600 nM on CDK2/cyclin E and 9900 nM at CDK1/cyclin B.
Regarding `Cc1c(-c2ccnc(Nc3cccc(C(F)(F)F)c3)n2)sc(=O)n1C` [Compound 19, 3,4-Dimethyl-5-[2-(3-trifluoromethyl-phenylamino)-pyrimidin-4-yl]-3H-thiazol-2-one], the inhibitory constant (Ki) at CDK2/cyclin E was 1700 nM; at CDK7/cyclin H, 5100 nM; at CDK9/cyclin T1, 1800 nM.
As to `Cc1c(-c2ccnc(Nc3ccc(Cl)cc3)n2)sc(=O)n1C` [Compound 4, 5-[2-(4-Chloro-phenylamino)-pyrimidin-4-yl]-3,4-dimethyl-3H-thiazol-2-one], the Ki at CDK4/cyclin D1 is 1600 nM; at CDK2/cyclin A it was 200 nM; on CDK2/cyclin E, 130 nM; on CDK1/cyclin B it was 460 nM; at CDK7/cyclin H, 4100 nM.
Consider `Cc1c(-c2ccnc(Nc3ccc(Cl)nc3)n2)sc(=O)n1CCC(C)C` [Compound 34, 5-[2-(6-Chloro-pyridin-3-ylamino)-pyrimidin-4-yl]-4-methyl-3-(3-methyl-butyl)-3H-thiazol-2-one], for which the Ki is 600 nM on CDK2/cyclin A; 1100 nM at CDK2/cyclin E; 3500 nM at CDK1/cyclin B; 230 nM at CDK7/cyclin H; 1800 nM on CDK9/cyclin T1.
